Laboratory results: patent US10285994B2, “Method of preventing or treating osteoporosis by neddylation inhibitor” (Chang Gung University, priority 2017, dated 2019)

Tests used:
[1] = test system: ovariectomized (OVX) mice; assay: Ovariectomy + sRANKL osteoporosis mouse model, micro-CT of distal femur; assay type: in vivo; details: 10 mg/kg i.p. once daily for 2 weeks
Procedure: FIGS. 6A-6E are the data depicting the mouse model of ovariectomy-induced osteoporosis, in which the ovariectomized (OVX) mice are respectively treated with sRANKL (1 mg/Kg) in the absence or presence of MLN4924 (10 mg/Kg) according to example 5.1 of the present disclosure. FIG. 6A: Micro computed-tomography (micro-CT) three-dimensional images of the distal femurs of mice respectively treated with the indicated treatments, in which the left panels represent transaxial plane, and the right panels represent coronal plane. FIGS. 6B-6D: micro-CT measurement of trabecular bone parameters, including bone volume/total volume (FIG. 6B), trabecular number (FIG. 6C), and trabecular space (FIG. 6D). FIG. 6E: Serum level of C-telopeptide of type 1 collagen (CTX-1) in control, OVX, OVX+sRANKL, and OVX+sRANKL+MLN4924 groups. Values are expressed as mean±SD, N=6 per group. *p<0.05; **p<0.01.
All experimental procedures were approved by the Institutional Animal Care and Use Committee of the Chang Gung Memorial Hospital at Chiayi and complied with the Guideline for the Care and Use of Laboratory Animals available through the National Academy of Sciences (IACUC number: 2013100102 and 2015103001). All efforts were made to minimize the suffering of the animals. C57BL/6J female mice (6-8 weeks old; obtained from BioLasco in Taiwan) were operated ovariectomy surgery (OVX). 48 hours later of OVX operation, sRANKL (1 mg/kg) or saline was injected intraperitoneally once daily for two days followed by intraperitoneal injection of MLN4924 (10 mg/kg) once daily for 2 weeks. Mice were sacrificed with CO2 asphyxiation, and the tibias and femurs were isolated therefrom. The tibias were subject to histochemistry assay, and the femurs were subject to bending test and tomographic analysis by MTS (Testresources, Shakopee, Minn.) and Skyscan 1272 (Bruker, Kontich, Belgium), respectively. Serum levels of cross linked C-telopeptide of type I collagen (CTX-1) (CEA665Mu) was measured by specific ELISA kit (USCN life science incorporation, Wuhan, Hubei, China).
The mice were first treated with specified treatments before subjecting to micro-computed tomography (pCT).
The effect of MLN4924 on trabecular bone parameters, including the bone volume/total tissue volume, trabecular number, and trabecular space in bone loss mice were then investigated, and results are presented in FIGS. 6B to 6D.

MC3T3-E1 cells = assay: Osteogenesis, Alizarin Red S stain of MC3T3-E1 cells; assay type: cell-based, mouse; details: MC3T3-E1, osteoblast differentiation medium, 21 days, FIG. 4B
Procedure: FIGS. 4A-4B respectively depict the osteogenesis of mouse pre-osteoblast cell line MC3T3-E1 cells incubated in the differentiation medium containing specified concentrations of MLN4924 for 21 days according to example 3 of the present disclosure. FIG. 4A: the growth of MC3T3-E1 cells during osteogenesis is analyzed by crystal violet staining. FIG. 4B: the osteogenesis of MC3T3-E1 cells on day 21 is analyzed by measuring Alizarin Red S stain. Diff: osteoblast differentiation medium. MLN: MLN4924.
The mouse pre-osteoblast cell line MC3T3-E1 cells were cultured in osteoblast differentiation medium with or without MLN4924 for 21 days.

RAW264.7 cells [2] = assay type: cell-based, mouse
Procedure: (§1) FIGS. 2A-2D are data collected from RAW264.7 cells respectively incubated in the medium containing sRANKL (50 ng/ml) and specified concentrations of MLN4924 for 7 days according to example 1.2 of the present disclosure. FIG. 2A: the photographs of TRAP staining depicting the differentiation of osteoclasts from RAW264.7 cells. FIG. 2B: after the differentiation of osteoclasts in Corning Osteo Surface, the cells were removed, and the resorbed areas for confirming osteoclast activity were analyzed by 1% toluidine blue staining. FIG. 2C: the culture medium is subject to Biovision Cathepsin K Activity Fluorometric Assay Kit for the analysis of cathepsin K activity. FIG. 2D: the effect of effective doses of MLN4924 on the viability of RAW264.7 cells is evaluated by MTT assay. Scale bar represents 100 μm. Data are expressed as mean±SD where *p<0.05.
In addition to BMMs, the effect of MLN4924 on macrophage cell line RAW264.7 cells was also investigated. The RAW264.7 cells were cultured in the medium containing sRANKL and MLN4924 for 7 days, then subjected to osteoclast formation evaluation by TRAP staining.

ERK (pERK) = assay: Western blot, sRANKL-induced ERK phosphorylation in RAW264.7 cells; assay type: cell-based, mouse; details: RAW264.7, 30 min pre-treatment, sRANKL 50 ng/ml, FIG. 3A-3B
Procedure: FIGS. 3A-3D are data collected from Western blot analysis that respectively depict the expression of specified protein extracted from the RAW264.7 cells, which are pre-treated with specified concentrations of MLN4924 for 30 minutes followed by the stimulation of sRANKL (50 ng/ml) according to example 2 of the present disclosure. FIG. 3A: the time course effect of MLN4924 on the phosphorylations of ERK (pERK), P38 (pP38) and JNK (pJNK). FIG. 3B: the dose effect of MLN4924 on the phosphorylations of ERK (pERK), P38 (pP38) and JNK (pJNK). FIG. 3C: the time course effect of MLN4924 on the expression of NFATc-1. FIG. 3D: the dose effect of MLN4924 on the expression of NFATc-1. Mock: untreated control; R: sRANKL; M: MLN4924.
The RAW264.7 cells were starved with serum-free medium for six hours and then treated with the specified treatments. At indicated time points, the cells were washed with cold phosphate-buffered saline (PBS) and lysed in RIPA buffer containing complete protease inhibitor cocktail (Roche). The cell lysates were separated by SDS-PAGE followed by Western blotting with the indicated antibodies, including NEDD8, APPBP1, UBA3.
Specifically, the inhibitory effect increased with an increase in the MLN4924 concentration (FIG. 3B).

RAW264.7 cells [3] = assay: Osteoclast formation from RAW264.7 cells, TRAP staining; assay type: cell-based, mouse; details: sRANKL-activated RAW264.7 cells, 7 days, FIG. 2A
Procedure: as §1
RAW264.7 cells (murine monocytic/macrophage cell line) were cultured in Dulbecco's modified Eagle's medium high glucose (DMEM)(Gibco BRL, Gaithersburg, Md.) containing 10% fetal bovine serum (Gibco) and 1× GlutaMax (Gibco).
For in vitro osteoclast formation, the pre-osteoclasts and RAW264.7 cells were cultured in the medium containing 50 ng/ml sRANKL […] specified concentrations of MLN4924 for seven days. […]

Structure (SMILES): NS(=O)(=O)OC[C@@H]1C[C@@H](n2ccc3c(N[C@H]4CCc5ccccc54)ncnc32)C[C@@H]1O [MLN4924, (1S,2S,4R)-4-(4-((1S)-2,3-Dihydro-1H-inden-1-ylamino)-7H-pyrrolo(2,3-d)pyrimidin-7-yl)-2-hydroxycyclopentyl) methyl sulphamate]
- trabecular bone loss at distal femoral metaphysis (micro-CT images) ([1]; FIG. 6A): could rescue the trabecular bone loss caused by OVX+sRANKL treatment
- bone volume/total tissue volume ([1]; vs OVX+sRANKL group, FIG. 6B): significantly rescued the sRANKL-mediated trabecular bone loss
- trabecular number ([1]; vs OVX+sRANKL group, FIG. 6C): significantly rescued the sRANKL-mediated trabecular bone loss
- trabecular space ([1]; vs OVX+sRANKL group, FIG. 6D): significantly rescued the sRANKL-mediated trabecular bone loss
- differentiation of osteoblasts (Alizarin Red S) (MC3T3-E1 cells): neither the survival of osteoblasts (FIG. 4A), nor the differentiation of osteoblasts (FIG. 4B) was affected
- cell viability of RAW264.7 cells (RAW264.7 cells [2]): did not affect cell viability
- sRANKL-upregulated phosphorylation of ERK (pERK) (ERK (pERK)): inhibited
- differentiation of osteoclasts (TRAP staining) (RAW264.7 cells [3]): significantly inhibited
